From patent US20240182491A1, “SUBSTITUTED FUSED BICYCLIC MACROCYCLIC COMPOUNDS AND RELATED METHODS OF TREATMENT” (Alkermes, Inc., priority 2021, published 2024)

Molecular target: T1, human orexin-2 receptor (OX2R) (Homo sapiens, UniProt O43614)
T1 construct: expressed in transfected cells
T1 sequence (O43614 1-444): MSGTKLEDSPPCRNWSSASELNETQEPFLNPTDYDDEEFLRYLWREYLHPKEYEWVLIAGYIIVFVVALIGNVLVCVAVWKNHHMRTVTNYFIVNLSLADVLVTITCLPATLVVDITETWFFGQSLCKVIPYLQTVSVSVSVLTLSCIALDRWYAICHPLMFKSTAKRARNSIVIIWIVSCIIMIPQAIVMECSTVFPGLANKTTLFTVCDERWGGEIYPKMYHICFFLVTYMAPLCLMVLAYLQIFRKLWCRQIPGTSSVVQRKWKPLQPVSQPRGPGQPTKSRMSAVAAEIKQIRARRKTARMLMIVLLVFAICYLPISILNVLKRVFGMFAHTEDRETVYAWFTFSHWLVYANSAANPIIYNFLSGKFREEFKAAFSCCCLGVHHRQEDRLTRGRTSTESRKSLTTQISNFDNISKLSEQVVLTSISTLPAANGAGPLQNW
Test: Human OX2R IP1 assay
Format: cell-based
Conditions: T-Rex CHO cells stably overexpressing human OX2R; inositol monophosphate (IP1) accumulation, 1 hr at 37 degrees C; mean EC50
Protocol: T-Rex CHO cells stably overexpressing the human orexin-2 receptor (OX2R) were induced overnight with 1 μg/mL of doxycycline in a T225 flask. 24 hours post induction, cells were lifted with accutase and plated into a 384-well proxy plate at 30,000 cells/well. Cells were then treated with different test compounds in 1× stimulation buffer containing 10 mM Hepes, 1 mM CaCl2), 0.5 mM MgCl2, 4.2 mM KCl, 146 mM NaCl, 5.5 mM glucose, and 50 mM LiCl, pH 7.4, for 1 hr at 37 degrees C. Following incubation, the reaction was terminated by the addition of detection mix, which is composed of IP1-d2 and anti-IP1-cryptate diluted in lysis buffer as well as 1× stimulation buffer. The plates were allowed to incubate for 1 hour at room temperature and were then read in the EnVision® multimode plate reader, measuring inositol phosphate levels.
Cisbio IP1 is a cell-based functional assay quantifying the accumulation of inositol monophosphate (IP), a metabolite released as a result of orexin 2 receptor activation through the phospholipase C-Gq signaling pathway. This is a competitive immunoassay in which the IP1 produced by the cells upon receptor activation competes with the IP1 analog coupled to the d2 fluorophore (acceptor) for binding to an anti-IP1 monoclonal antibody labeled with Eu cryptate (donor). The measured HTRF-FRET based signal is inversely proportional to the IP1 concentration produced.
The EC50 values reported in Table 2 were obtained according to the human OX2R IP1 assay described above. Data are the mean EC50 values ±S.E.M.

| EC50 [nM] | Compound |
| --- | --- |
| 100 to 1000 | O=C1COc2cc3[nH]ncc3cc2C2CCC(CC2)OCC2[C@@H](NS(=O)(=O)C(F)(F)F)CCN12 (stereo partly drawn) [Compound 5] |
| 100 to 1000 | CS(=O)(=O)N[C@H]1CCN2C(=O)COc3cc4[nH]ncc4cc3[C@H]3CC[C@H](CC3)OC[C@@H]12 [Compound 6] |
| < 100 | CS(=O)(=O)N[C@H]1CCCN2C(=O)COc3cc4[nH]ncc4cc3[C@H]3CC[C@H](CC3)OC[C@@H]12 [Compound 10] |
